Laboratory results: BindingDB's records for patent US20250195521 (Revolution Medicines, 2025)

How the values were obtained:
GTPase KRas [G12D] = GTPase KRas [G12D] (Homo sapiens, UniProt P01116, G12D)
GTPase KRas [G13C] = GTPase KRas [G13C] (Homo sapiens, UniProt P01116, G13C)
GTPase NRas [G12C] = GTPase NRas [G12C] (Homo sapiens, UniProt P01111, G12C)
GTPase KRas [G12V] = GTPase KRas [G12V] (Homo sapiens, UniProt P01116, G12V)
GTPase KRas [G12C] = GTPase KRas [G12C] (Homo sapiens, UniProt P01116, G12C)
Sequence of GTPase KRas [G12C] (P01116 whole entry G12C): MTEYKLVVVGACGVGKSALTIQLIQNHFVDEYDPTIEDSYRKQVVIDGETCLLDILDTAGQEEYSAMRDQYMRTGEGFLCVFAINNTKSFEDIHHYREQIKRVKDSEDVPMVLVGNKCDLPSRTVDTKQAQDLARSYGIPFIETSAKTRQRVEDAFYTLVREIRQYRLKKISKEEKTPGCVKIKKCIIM

kras g13d = kras g13d (Homo sapiens, UniProt P01116, G13D)
Sequence of kras g13d (P01116 whole entry G13D): as the sequence (P01116 whole entry G12C) above, with C12G, G13D counted along it

GTPase KRas = GTPase KRas (Homo sapiens, UniProt P01116)
Sequence of GTPase KRas (P01116 whole entry): as the sequence (P01116 whole entry G12C) above, with C12G counted along it

GTPase KRas [Q61H] = GTPase KRas [Q61H] (Homo sapiens, UniProt P01116, Q61H)
Sequence of GTPase KRas [Q61H] (P01116 whole entry Q61H): as the sequence (P01116 whole entry G12C) above, with C12G, Q61H counted along it

GTPase NRas = GTPase NRas (Homo sapiens, UniProt P01111)
Sequence of GTPase NRas (P01111 whole entry): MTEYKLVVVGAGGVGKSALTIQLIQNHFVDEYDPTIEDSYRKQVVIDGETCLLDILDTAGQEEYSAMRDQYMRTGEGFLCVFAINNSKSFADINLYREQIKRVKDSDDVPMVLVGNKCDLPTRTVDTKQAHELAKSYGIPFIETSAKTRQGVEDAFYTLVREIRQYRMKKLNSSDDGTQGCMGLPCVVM

GTPase NRas [Q61K] = GTPase NRas [Q61K] (Homo sapiens, UniProt P01111, Q61K)
Sequence of GTPase NRas [Q61K] (P01111 whole entry Q61K): as the sequence (P01111 whole entry) above, with Q61K counted along it

GTPase NRas [Q61R] = GTPase NRas [Q61R] (Homo sapiens, UniProt P01111, Q61R)
Sequence of GTPase NRas [Q61R] (P01111 whole entry Q61R): as the sequence (P01111 whole entry) above, with Q61R counted along it

Sequence of GTPase KRas [G12D] (P01116 whole entry G12D): as the sequence (P01116 whole entry G12C) above, with C12D counted along it
Sequence of GTPase KRas [G12V] (P01116 whole entry G12V): as the sequence (P01116 whole entry G12C) above, with C12V counted along it
Sequence of GTPase KRas [G13C] (P01116 whole entry G13C): as the sequence (P01116 whole entry G12C) above, with C12G, G13C counted along it
Sequence of GTPase NRas [G12C] (P01111 whole entry G12C): as the sequence (P01111 whole entry) above, with G12C counted along it

Row | SMILES | IC50 (GTPase KRas [G12D]) | IC50 (GTPase KRas [G13C]) | IC50 (GTPase NRas [G12C]) | IC50 (GTPase KRas [G12V]) | IC50 (GTPase KRas [G12C]) | IC50 (kras g13d) | IC50 (GTPase KRas) | IC50 (GTPase KRas [Q61H]) | IC50 (GTPase NRas) | IC50 (GTPase NRas [Q61K]) | IC50 (GTPase NRas [Q61R])
1 | CCn1c(-c2cccnc2[C@H](C)OC)c2c3cc(ccc31)-c1cc(O)cc(c1)C[C@H](NC(=O)C1[C@H]3COC[C@@H]13)C(=O)N1CCC[C@H](N1)C(=O)OCC(C)(C)C2 (stereo not given in full) [US20250195521, Example A253] | > 10000 nM |  |  |  |  |  |  |  |  |  | 
2 | CCn1c(-c2cnccc2COC)c2c3cc(ccc31)-c1cc(O)cc(c1)C[C@H](NC(=O)[C@H](C(C)C)N(C)C(=O)[C@@H]1NC[C@@H]3C[C@@H]31)C(=O)N1CCC[C@H](N1)C(=O)OCC(C)(C)C2 [US20250195521, Example A78] | in the range around 550 nM | 55 nM | in the range around 550 nM | in the range around 550 nM | 550 nM | in the range around 550 nM | in the range around 550 nM |  |  |  | 
3 | CCn1c(-c2cccnc2[C@H](C)OC)c2c3cc(ccc31)-c1csc(n1)C[C@H](NC(=O)[C@H](C(C)C)N(C)C(=O)OC)C(=O)N1CCC[C@H](N1)C(=O)OCC(C)(C)C2 [US20250195521, Example A138] | in the range around 5500 nM | 550 nM | in the range around 550 nM | in the range around 550 nM | 550 nM | in the range around 5500 nM | in the range around 550 nM | in the range around 550 nM | in the range around 550 nM | in the range around 550 nM | in the range around 550 nM
4 | CCn1c(-c2cccnc2[C@H](C)OC)c2c3cc(ccc31)-c1csc(n1)C[C@H](NC(=O)[C@H](C(C)C)N(C)C(=O)N1CCC[C@@H](N(C)C)CC1)C(=O)N1CCC[C@H](N1)C(=O)OCC(C)(C)C2 [US20250195521, Example A494] | in the range around 55 nM |  | in the range around 55 nM |  | 55 nM |  | in the range around 55 nM | in the range around 55 nM | in the range around 55 nM | in the range around 55 nM | in the range around 55 nM
5 | CCN1C[C@@H](C(=O)N(C)[C@H](C(=O)N[C@H]2Cc3cc(O)cc(c3)-c3ccc4c(c3)c(c(-c3cnccc3COC)n4CC)CC(C)(C)COC(=O)[C@@H]3CCCN(N3)C2=O)C(C)C)CC1=O [US20250195521, Example A16] | in the range around 5500 nM | 550 nM | in the range around 550 nM | in the range around 550 nM | 55 nM | in the range around 550 nM | in the range around 550 nM |  |  |  | 
6 | CCn1c(-c2cccnc2[C@H](C)OC)c2c3cc(ccc31)-c1cc(O)cc(c1)C[C@H](NC(=O)[C@H](C(C)C)N(C)C(=O)[C@H]1CCN(C(=O)OC(C)C)C1)C(=O)N1CCC[C@H](N1)C(=O)OCC(C)(C)C2 [US20250195521, Example A117] |  |  |  | > 10000 nM |  |  |  |  |  |  | 
